Read-outs that look alike come from different tables or passages of the source.
What was measured:
HaCaT = details: 24 hours
Description: (§1) Potential apoptosis and necrosis induction was studied in the cell lines using Annexin V conjugated with Alexa Fluor 488 (Molecular Probes) and Propidium Iodide (PI, Sigma) fluorochromes by Flow Cytometry, to measure early apoptotic event and necrosis respectively, after exposure to different concentrations of sulforaphane or sulforaphane-loaded nanoemulsion suspensions. HaCaT, and 3T3 cells were seeded in 24 well plates at a density of 100.000 cells/well. 24 hours later cells were exposed to test items for further 24 hours. After the exposure, 5 µL of the annexin V conjugates were added to each 100 µL of cell suspension replicate (minimum of 10.000 cell/100µL) and incubated at room temperature for 15 minutes. After incubation, cells were washed and submitted to flow cytometry acquisition. Immediately before acquisition, the stained cells were contrasted with PI (5 µg/ml) to detect necrotic cells and analysed by Cytomics FC500 Flow Cytometer. Three independent experiments and at least three replicates for each experimental point were carried out. Each experiment included a negative control (untreated cells). […]

3T3 = details: 3T3, 24 hours
Description: as §1

[1] = 6.25 mM sulforaphane (6.26 printed for the nanoemulsion)

SMILES: C[S+]([O-])CCCCN=C=S (racemic) [Sulforaphane, D,L-Sulforaphane]
- AnnexinV (percentage of positive cells) (HaCaT; 3.125 mM sulforaphane): 5.90±0.98%
- AnnexinV+PI (percentage of positive cells) (HaCaT; 3.125 mM sulforaphane): 1.27±0.06%
- C neg (percentage of cells) (HaCaT; 3.125 mM sulforaphane): 90.97±1.77%
- PI (percentage of positive cells) (HaCaT; 3.125 mM sulforaphane): 1.87±0.81%
- AnnexinV (percentage of positive cells) (HaCaT; [1]): 7.33±1.82%
- AnnexinV+PI (percentage of positive cells) (HaCaT; [1]): 1.83±0.15%
- C neg (percentage of cells) (HaCaT; [1]): 88.50±1.65%
- PI (percentage of positive cells) (HaCaT; [1]): 2.33±0.61%
- AnnexinV (percentage of positive cells) (HaCaT; 12.5 mM sulforaphane): 7.17±1.74%
- AnnexinV+PI (percentage of positive cells) (HaCaT; 12.5 mM sulforaphane): 2.03±0.35%
- C neg (percentage of cells) (HaCaT; 12.5 mM sulforaphane): 88.10±3.40%
- PI (percentage of positive cells) (HaCaT; 12.5 mM sulforaphane): 2.70±0.30%
- AnnexinV (percentage of positive cells) (3T3; 3.125 mM sulforaphane): 7.73±1.23%
- AnnexinV+PI (percentage of positive cells) (3T3; 3.125 mM sulforaphane): 1.93±0.15%
- C neg (percentage of cells) (3T3; 3.125 mM sulforaphane): 86.23±1.77%
- PI (percentage of positive cells) (3T3; 3.125 mM sulforaphane): 4.10±2.38%
- AnnexinV (percentage of positive cells) (3T3; [1]): 7.83±1.50%
- AnnexinV+PI (percentage of positive cells) (3T3; [1]): 2.03±0.46%
- C neg (percentage of cells) (3T3; [1]): 86.97±1.68%
- PI (percentage of positive cells) (3T3; [1]): 3.17±0.76%
- AnnexinV (percentage of positive cells) (3T3; 12.5 mM sulforaphane): 11.07±1.59%
- AnnexinV+PI (percentage of positive cells) (3T3; 12.5 mM sulforaphane): 3.07±0.67%
- C neg (percentage of cells) (3T3; 12.5 mM sulforaphane): 81.57±3.40%
- PI (percentage of positive cells) (3T3; 12.5 mM sulforaphane): 4.30±0.54%
